Measured values published in article PMC5860131, “Identification of natural products as novel ligands for the human 5-HT2C receptor” (Biophysics Reports, 2018).

Columns and labels:
[1] = biological target: T1, 5-HT2C receptor A222^5.46V (Homo sapiens, UniProt P28335, A222V/DEL255-298/G251D/H250E/H252N/INS299[…]/L248D/M247A/M300L/T253W); experiment: CPM thermal stability assay, 5-HT2C mutant A222V; type: binding
T1 construct: the N- and C-terminals were truncated by 39 and 65 residues, respectively; PreScission protease site + 10× His (C); made in house
Text: (§1) Based on the binding poses predicted by molecular docking, single-point mutations were designed to test their impact on ligand binding. Mutations of several residues include the highly conserved Asp134^3.32, which is known to cause 5-HT1B or 5-HT2B receptors to abolish the monoamine ligand binding as reported in the literature (Wang et al. [2013]). In this study, residues forming hydrophobic interactions with the substitution groups on the aporphine scaffold of (–)-crebanine (1) were selected for mutation as well and they are Thr139^3.37, Gly218^5.42, Ala222^5.46, and Leu209^ECL2. Effects of those mutations were tested with the CPM assay and the affinity MS assay (Table 2). In the affinity MS experiment, relative ligand-binding capacity (represented by binding %) to different mutants and the wild-type receptor was compared. […]
(§2) Purified 5-HT2C receptor protein was thoroughly mixed with CPM fluorescent dyes. […] Fluorescence signals, wavelength 387 nm (excitation) and 463 nm (emission), were monitored (Alexandrov et al. [2008]). […] The thermal denaturation of the samples was evaluated using the scatter plot curve, where the horizontal coordinates represented temperature and the vertical coordinates indicated normalized fluorescence intensity recorded for a particular temperature. […]

[2] = biological target: T2, 5-HT2C receptor (Homo sapiens, UniProt P28335); experiment: Ca2+ mobilization assay (Fluo-4, FLIPR), HEK 293T cells stably transfected with 5-HT2C; type: cell-based
T2 construct: expressed in transfected cells; host or cells: HEK 293T, stably transfected
T2 sequence (P28335 33-458): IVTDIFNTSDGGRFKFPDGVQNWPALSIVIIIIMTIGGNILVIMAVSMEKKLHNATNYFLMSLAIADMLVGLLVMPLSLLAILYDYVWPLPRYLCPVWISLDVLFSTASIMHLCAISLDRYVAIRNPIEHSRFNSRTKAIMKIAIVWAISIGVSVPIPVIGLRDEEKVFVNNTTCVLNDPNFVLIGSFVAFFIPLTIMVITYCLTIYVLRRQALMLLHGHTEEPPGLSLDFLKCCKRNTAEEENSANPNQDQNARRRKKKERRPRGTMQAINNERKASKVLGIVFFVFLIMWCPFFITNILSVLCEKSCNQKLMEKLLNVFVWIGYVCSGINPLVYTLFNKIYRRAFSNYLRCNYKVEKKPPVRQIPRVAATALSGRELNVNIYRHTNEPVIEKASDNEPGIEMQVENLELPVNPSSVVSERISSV
Text: The 5-HT2C receptor mainly couples to Gαq proteins. The activated 5-HT2C receptor transmits the signals from the extracellular to the intercellular side using DAG/IP3 (diacyl glycerol/inositol 1,4,5-trisphosphate) as its second massagers (Hannon and Hoyer [2008]). IP3 stimulates the endoplasmic reticulum to release calcium ions into the cytoplasm, which causes the increase of calcium concentration in cytosol. Therefore, calcium mobilization assay is commonly applied to understand how unknown small molecule ligands of 5-HT2C receptor modulate cellular signal transductions. In this case, Fluo-4 Direct dye was used as a fluorescence indicator to detect calcium flux in G protein-coupled receptor expressed cells. The fold of maximum response over average of basal reading is plotted against compound concentration to determine the potency of the compounds (Fig. 3). […]. HEK 293T cells stably transfected with 5-HT2A/2B/2C receptor were seeded in 384-well plates at a density of 15,000 cells/well in DMEM containing 1% dialyzed FBS 8 h before the calcium flux assay. After removing medium, cells were then incubated (20 μl/well) for 1 h at 37 °C with Fluo-4 Direct dye (Invitrogen) reconstituted in FLIPR buffer (1× HBSS, 2.5 mmol/L probenecid, and 20 mmol/L HEPES, pH 7.4). After the dye loaded, cells were placed in a FLIPR^TETRA fluorescence imaging plate reader (Molecular Devices); drug dilutions, prepared at 3× final concentration in FLIPR buffer and aliquotted into 384-well plates, were also added to the FLIPR^TETRA. The fluidics module and plate reader of the FLIPR^TETRA were programmed to read baseline fluorescence for 10 s (1 read/s), then to add 10 μl of drug/well and to read for 6 min (1 read/s). Fluorescence in each well was normalized to the average of the first 10 reads (i.e., baseline fluorescence). Then, the maximum-fold increase, which occurred within 60 s after drug addition, over baseline fluorescence elicited by vehicle or drug was determined. […]

[3] = biological target: T3, 5-HT2C receptor G218^5.42S (Homo sapiens, UniProt P28335, DEL255-298/G218S/G251D/H250E/H252N/INS299[…]/L248D/M247A/M300L/T253W); experiment: CPM thermal stability assay, 5-HT2C mutant G218S; type: binding
T3 construct: the N- and C-terminals were truncated by 39 and 65 residues, respectively; PreScission protease site + 10× His (C); made in house
Text: as §1, §2

[4] = biological target: T4, 5-HT2C receptor (Homo sapiens, UniProt P28335, DEL255-298/G251D/H250E/H252N/INS299[…]/L248D/M247A/M300L/T253W); type: binding
T4 construct: the N- and C-terminals were truncated by 39 and 65 residues, respectively; FLAG (N); PreScission protease site + 10× His (C); made in house; host or cells: Spodoptera frugiperda (Sf9), baculovirus

[5] = biological target: T5, 5-HT2C receptor A222^5.46F (Homo sapiens, UniProt P28335, A222F/DEL255-298/G251D/H250E/H252N/INS299[…]/L248D/M247A/M300L/T253W); experiment: CPM thermal stability assay, 5-HT2C mutant A222F; type: binding; settings: mutant A222^5.46F, n = 2
T5 construct: the N- and C-terminals were truncated by 39 and 65 residues, respectively; PreScission protease site + 10× His (C); made in house
Text: as §1, §2

T1 sequence (P28335 with tags, fused parts or gaps with the stated changes): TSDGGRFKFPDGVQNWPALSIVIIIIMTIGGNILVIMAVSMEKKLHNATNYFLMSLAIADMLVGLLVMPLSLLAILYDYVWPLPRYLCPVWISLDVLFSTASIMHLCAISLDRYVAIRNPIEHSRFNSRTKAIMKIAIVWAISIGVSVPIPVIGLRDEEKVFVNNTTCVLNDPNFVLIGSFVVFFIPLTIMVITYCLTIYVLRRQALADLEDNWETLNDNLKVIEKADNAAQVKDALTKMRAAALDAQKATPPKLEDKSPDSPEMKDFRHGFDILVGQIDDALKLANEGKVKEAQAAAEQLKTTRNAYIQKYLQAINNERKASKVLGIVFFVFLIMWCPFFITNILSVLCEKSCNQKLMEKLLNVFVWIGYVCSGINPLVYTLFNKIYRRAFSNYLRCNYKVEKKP
T3 sequence (P28335 with tags, fused parts or gaps with the stated changes): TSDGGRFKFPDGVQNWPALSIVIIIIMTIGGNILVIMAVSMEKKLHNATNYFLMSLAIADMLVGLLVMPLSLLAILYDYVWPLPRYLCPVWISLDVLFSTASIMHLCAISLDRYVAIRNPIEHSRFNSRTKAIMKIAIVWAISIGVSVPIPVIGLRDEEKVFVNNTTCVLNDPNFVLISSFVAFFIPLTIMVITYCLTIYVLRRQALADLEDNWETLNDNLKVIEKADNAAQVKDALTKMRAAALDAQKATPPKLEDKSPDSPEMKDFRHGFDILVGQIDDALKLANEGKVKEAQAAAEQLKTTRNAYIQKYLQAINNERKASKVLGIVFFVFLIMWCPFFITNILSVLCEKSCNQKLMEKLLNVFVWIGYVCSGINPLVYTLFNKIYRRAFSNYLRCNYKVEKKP
T4 sequence (P28335 with tags, fused parts or gaps with the stated changes limits assumed): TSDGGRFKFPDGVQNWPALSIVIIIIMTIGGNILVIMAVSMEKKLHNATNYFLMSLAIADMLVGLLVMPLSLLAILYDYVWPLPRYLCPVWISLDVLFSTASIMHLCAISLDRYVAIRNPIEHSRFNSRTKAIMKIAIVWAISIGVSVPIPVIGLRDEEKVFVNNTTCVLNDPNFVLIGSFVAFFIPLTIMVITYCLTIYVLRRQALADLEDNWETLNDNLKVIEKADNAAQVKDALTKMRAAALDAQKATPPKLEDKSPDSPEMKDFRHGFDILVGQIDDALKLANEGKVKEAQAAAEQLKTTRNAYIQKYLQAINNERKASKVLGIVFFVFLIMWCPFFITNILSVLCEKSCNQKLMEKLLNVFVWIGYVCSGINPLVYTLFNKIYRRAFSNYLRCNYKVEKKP
T5 sequence (P28335 with tags, fused parts or gaps with the stated changes): as the sequence (P28335 with tags, fused parts or gaps with the stated changes limits assumed) above, with A183F counted along it

For COc1ccc2c(c1OC)C[C@@H]1c3c(cc4c(c3-2)OCO4)CCN1C [Compound 1, (–)-crebanine], which “(–)-Crebanine/CPM (Tm)” value ([1]; mutant A222^5.46V, n = 2) is on record?
The value was 59.55 °C.

And the “Tm value decrease versus wild-type” value ([1]; mutation Ala222^5.46Val)?
Its value is 0.38 °C.

What about the IC50 [2] of the same compound?
Its IC50 is 149 nM.

What about the “(–)-Crebanine/CPM (Tm)” value ([3]; mutant G218^5.42S, n = 2) of the same compound?
The value was 53.24 °C.

What about the “Tm value decrease versus wild-type” value ([3]; mutation Gly218^5.42Ser) of the same compound?
Its value is “over 6.0 °C”.

And the “thermal shift value (∆Tm)” value ([4]; CPM assay, comparing to apo-protein)?
The value was 9.25 °C.

What about the “(–)-Crebanine/CPM (Tm)” value ([4]; WT receptor, n = 2) of the same compound?
The value was 59.93 °C.

What about the “(–)-Crebanine/CPM (Tm)” value [5] of the same compound?
The value was 55.70 °C.
